Source: PMC4979471 (Cell Death Discovery, 2015)
Read-outs that look alike come from different tables or passages of the source.

Legend:
Assay in all cases: Kinase selectivity, P33-radiolabeled assay
Type in all cases: biochemical
Settings in all cases: 10 μM ATP
CLK1 = target: T1, CLK1 (Homo sapiens, UniProt P49759)
T1 construct: purchased Reaction Biology Corp
Description: (§1) The compound was tested at a single dose in duplicate at 10 μM. Reactions were carried out at 10 μM ATP. Data are reported as % enzyme activity (relative to DMSO controls). The full data set is shown in the Supplementary Table I.

CDK7/cyclin H = target: T2, CDK7/cyclin H (Homo sapiens, UniProt P50613)
T2 construct: purchased Reaction Biology Corp
Description: as §1

BTK = target: T3, BTK (Homo sapiens, UniProt Q06187)
T3 construct: purchased Reaction Biology Corp
Description: as §1

MLK3/MAP3K11 = target: T4, MLK3/MAP3K11 (Homo sapiens, UniProt Q16584)
T4 construct: purchased Reaction Biology Corp
Description: as §1

PDK1/PDPK1 = target: T5, PDK1/PDPK1 (Homo sapiens, UniProt O15530)
T5 construct: purchased Reaction Biology Corp
T5 sequence (O15530 1-556): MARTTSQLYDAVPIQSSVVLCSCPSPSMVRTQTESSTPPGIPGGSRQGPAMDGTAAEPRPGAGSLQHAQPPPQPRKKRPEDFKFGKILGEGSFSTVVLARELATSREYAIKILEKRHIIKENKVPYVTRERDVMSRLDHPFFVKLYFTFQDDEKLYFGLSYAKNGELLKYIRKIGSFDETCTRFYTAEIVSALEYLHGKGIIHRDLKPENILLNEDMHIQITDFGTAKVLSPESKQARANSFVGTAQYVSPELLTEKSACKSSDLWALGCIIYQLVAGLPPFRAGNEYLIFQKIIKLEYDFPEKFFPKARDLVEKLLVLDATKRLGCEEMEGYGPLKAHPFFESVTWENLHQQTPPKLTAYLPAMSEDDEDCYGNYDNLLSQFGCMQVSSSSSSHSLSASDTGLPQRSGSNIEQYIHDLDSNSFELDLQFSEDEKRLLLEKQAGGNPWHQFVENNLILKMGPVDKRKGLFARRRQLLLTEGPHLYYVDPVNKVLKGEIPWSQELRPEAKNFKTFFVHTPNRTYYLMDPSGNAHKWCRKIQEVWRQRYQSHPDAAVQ
Description: as §1

MELK = target: T6, MELK (Homo sapiens, UniProt Q14680)
T6 construct: purchased Reaction Biology Corp
T6 sequence (Q14680 whole entry): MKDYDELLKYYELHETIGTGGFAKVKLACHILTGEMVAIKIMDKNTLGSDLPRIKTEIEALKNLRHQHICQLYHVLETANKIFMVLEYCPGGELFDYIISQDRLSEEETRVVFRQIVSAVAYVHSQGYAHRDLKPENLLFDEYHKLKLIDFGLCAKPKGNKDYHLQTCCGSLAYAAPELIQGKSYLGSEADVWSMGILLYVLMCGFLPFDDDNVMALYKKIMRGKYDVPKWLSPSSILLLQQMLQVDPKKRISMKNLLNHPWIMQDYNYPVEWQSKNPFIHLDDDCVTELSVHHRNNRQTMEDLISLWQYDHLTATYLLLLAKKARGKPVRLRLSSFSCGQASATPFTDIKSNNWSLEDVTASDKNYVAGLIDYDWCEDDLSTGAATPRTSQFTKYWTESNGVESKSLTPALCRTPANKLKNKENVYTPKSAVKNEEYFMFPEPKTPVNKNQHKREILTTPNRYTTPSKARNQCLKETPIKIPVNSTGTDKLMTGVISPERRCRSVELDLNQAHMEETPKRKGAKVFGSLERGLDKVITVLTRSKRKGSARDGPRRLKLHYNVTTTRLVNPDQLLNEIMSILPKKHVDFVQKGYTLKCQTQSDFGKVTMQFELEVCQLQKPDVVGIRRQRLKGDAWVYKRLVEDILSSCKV
Description: as §1

PIM3 = target: T7, PIM3 (Homo sapiens, UniProt Q86V86)
T7 construct: purchased Reaction Biology Corp
Description: as §1

CDK1/cyclin B = target: T8, CDK1/cyclin B (Homo sapiens, UniProt P06493)
T8 construct: purchased Reaction Biology Corp
Description: as §1

CK2a2 = target: T9, CK2a2 (Homo sapiens, UniProt P19784)
T9 construct: purchased Reaction Biology Corp
T9 sequence (P19784 whole entry): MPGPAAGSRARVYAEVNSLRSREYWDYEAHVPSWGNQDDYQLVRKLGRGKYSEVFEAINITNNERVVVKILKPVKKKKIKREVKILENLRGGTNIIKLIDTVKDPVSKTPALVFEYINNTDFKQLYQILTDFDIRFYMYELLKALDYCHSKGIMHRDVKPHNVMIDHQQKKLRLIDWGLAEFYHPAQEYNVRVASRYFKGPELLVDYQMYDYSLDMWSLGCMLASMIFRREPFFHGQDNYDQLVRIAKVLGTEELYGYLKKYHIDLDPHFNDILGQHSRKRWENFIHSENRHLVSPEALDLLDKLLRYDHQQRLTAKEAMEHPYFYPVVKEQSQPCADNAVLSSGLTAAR
Description: as §1

PLK3 = target: T10, PLK3 (Homo sapiens, UniProt Q9H4B4)
T10 construct: purchased Reaction Biology Corp
T10 sequence (Q9H4B4 whole entry): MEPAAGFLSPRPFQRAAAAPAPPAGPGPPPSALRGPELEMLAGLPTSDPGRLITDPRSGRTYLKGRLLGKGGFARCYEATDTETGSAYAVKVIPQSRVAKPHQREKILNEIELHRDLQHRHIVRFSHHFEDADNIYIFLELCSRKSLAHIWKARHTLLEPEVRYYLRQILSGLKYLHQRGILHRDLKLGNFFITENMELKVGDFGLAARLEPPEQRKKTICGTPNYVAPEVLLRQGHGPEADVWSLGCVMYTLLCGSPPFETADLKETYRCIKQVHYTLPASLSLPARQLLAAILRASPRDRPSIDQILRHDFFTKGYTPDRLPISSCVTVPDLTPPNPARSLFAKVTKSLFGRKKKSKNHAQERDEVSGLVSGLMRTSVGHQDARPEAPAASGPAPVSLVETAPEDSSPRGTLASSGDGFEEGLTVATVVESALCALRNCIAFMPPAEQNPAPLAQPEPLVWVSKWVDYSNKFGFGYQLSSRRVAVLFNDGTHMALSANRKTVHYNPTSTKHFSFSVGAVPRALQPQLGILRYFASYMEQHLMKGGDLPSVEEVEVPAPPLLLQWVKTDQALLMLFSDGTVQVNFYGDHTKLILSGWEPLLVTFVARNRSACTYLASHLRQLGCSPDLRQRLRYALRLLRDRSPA
Description: as §1

MARK1 = target: T11, MARK1 (Homo sapiens, UniProt Q9P0L2)
T11 construct: purchased Reaction Biology Corp
T11 sequence (Q9P0L2 whole entry): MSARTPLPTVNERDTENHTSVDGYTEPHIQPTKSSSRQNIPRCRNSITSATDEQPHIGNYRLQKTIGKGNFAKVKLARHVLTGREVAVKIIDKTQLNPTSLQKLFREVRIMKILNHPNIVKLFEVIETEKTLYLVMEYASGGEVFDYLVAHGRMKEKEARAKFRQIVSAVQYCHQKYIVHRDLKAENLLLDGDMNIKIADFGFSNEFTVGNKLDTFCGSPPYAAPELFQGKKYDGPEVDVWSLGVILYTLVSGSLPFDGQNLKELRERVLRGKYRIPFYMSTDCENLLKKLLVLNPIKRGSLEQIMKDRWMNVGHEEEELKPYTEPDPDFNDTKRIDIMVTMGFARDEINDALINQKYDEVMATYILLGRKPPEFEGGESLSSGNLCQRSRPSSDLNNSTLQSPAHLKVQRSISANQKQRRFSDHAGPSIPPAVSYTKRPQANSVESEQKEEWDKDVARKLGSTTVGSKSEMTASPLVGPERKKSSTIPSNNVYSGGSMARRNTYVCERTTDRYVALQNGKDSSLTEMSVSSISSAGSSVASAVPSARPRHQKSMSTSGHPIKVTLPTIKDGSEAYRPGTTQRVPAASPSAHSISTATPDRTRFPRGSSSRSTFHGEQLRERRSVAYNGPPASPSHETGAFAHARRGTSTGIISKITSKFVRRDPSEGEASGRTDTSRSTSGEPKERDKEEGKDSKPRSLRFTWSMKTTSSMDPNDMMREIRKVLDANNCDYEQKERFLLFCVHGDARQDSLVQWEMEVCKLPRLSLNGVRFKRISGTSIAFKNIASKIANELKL
Description: as §1

PLK2 = target: T12, PLK2 (Homo sapiens, UniProt Q9NYY3)
T12 construct: purchased Reaction Biology Corp
T12 sequence (Q9NYY3 whole entry): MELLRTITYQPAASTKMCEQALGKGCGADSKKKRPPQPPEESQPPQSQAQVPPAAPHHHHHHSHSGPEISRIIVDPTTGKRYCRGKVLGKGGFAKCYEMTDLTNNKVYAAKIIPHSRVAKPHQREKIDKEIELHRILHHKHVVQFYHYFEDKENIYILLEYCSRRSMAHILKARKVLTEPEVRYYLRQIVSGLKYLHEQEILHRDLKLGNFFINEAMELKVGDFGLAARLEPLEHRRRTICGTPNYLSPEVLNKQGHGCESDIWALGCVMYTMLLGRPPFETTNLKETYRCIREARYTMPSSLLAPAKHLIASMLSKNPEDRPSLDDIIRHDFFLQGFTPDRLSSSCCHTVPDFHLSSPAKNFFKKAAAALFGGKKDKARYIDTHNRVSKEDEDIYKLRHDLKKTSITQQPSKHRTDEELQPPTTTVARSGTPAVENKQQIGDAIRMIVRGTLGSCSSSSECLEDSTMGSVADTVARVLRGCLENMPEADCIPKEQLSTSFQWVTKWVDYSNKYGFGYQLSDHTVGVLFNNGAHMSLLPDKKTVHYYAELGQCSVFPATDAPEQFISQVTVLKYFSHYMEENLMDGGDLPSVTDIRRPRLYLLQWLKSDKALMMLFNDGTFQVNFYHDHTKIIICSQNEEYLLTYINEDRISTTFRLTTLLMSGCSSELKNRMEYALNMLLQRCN
Description: as §1

AKT1 = target: T13, AKT1 (Homo sapiens, UniProt P31749)
T13 construct: purchased Reaction Biology Corp
T13 sequence (P31749 whole entry): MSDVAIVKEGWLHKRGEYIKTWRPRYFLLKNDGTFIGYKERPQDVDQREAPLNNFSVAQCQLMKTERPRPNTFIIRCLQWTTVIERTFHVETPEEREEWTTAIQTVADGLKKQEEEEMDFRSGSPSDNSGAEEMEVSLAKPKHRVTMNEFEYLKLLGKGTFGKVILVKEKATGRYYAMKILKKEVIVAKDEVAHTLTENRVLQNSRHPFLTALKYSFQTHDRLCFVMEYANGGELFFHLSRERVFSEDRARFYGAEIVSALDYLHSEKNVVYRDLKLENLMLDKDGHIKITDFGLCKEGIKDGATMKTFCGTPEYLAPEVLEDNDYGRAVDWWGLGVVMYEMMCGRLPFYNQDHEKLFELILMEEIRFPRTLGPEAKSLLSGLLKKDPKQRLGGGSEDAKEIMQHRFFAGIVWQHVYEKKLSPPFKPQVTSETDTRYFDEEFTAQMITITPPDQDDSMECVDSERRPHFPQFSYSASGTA
Description: as §1

CDK1/cyclin A = target: T14, CDK1/cyclin A (Homo sapiens, UniProt P06493)
T14 construct: purchased Reaction Biology Corp
Description: as §1

ULK3 = target: T15, ULK3 (Homo sapiens, UniProt Q6PHR2)
T15 construct: purchased Reaction Biology Corp
T15 sequence (Q6PHR2 1-472): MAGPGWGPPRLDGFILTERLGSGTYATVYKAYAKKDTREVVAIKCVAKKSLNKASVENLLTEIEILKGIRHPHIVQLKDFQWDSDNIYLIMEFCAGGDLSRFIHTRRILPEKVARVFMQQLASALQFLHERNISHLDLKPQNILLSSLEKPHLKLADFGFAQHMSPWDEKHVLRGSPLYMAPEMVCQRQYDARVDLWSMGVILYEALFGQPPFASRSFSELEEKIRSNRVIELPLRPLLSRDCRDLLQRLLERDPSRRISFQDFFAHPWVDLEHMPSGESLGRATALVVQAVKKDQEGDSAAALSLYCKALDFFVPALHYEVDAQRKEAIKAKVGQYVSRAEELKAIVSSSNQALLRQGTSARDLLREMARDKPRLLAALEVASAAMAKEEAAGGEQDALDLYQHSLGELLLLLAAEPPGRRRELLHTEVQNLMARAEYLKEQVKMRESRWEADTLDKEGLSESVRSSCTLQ
Description: as §1

TYK2 = target: T16, TYK2 (Homo sapiens, UniProt P29597)
T16 construct: purchased Reaction Biology Corp
Description: as §1

FGR = target: T17, FGR (Homo sapiens, UniProt P09769)
T17 construct: purchased Reaction Biology Corp
Description: as §1

GRK5 = target: T18, GRK5 (Homo sapiens, UniProt P34947)
T18 construct: purchased Reaction Biology Corp
T18 sequence (P34947 whole entry): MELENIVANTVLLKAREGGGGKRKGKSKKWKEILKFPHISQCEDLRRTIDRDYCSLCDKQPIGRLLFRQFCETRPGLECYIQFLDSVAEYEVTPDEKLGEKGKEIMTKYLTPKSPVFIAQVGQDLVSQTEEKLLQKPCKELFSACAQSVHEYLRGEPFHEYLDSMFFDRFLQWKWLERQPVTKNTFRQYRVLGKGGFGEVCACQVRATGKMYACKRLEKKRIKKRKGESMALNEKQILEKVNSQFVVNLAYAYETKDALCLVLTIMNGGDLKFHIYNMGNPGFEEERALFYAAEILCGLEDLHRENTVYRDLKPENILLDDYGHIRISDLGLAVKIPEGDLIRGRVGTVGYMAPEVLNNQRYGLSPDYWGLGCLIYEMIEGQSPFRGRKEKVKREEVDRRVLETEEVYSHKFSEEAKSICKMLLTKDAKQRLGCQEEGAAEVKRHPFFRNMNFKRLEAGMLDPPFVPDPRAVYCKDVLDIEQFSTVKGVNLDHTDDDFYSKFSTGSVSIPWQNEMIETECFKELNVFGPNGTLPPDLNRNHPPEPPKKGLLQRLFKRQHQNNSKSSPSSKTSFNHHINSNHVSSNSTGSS
Description: as §1

[1] = read-out: % Enzyme Activity (relative to DMSO controls) AVG
[2] = read-out: % Enzyme Activity (relative to DMSO controls) Data 1
[3] = read-out: % Enzyme Activity (relative to DMSO controls) Data 2

T1 sequence (P49759 whole entry): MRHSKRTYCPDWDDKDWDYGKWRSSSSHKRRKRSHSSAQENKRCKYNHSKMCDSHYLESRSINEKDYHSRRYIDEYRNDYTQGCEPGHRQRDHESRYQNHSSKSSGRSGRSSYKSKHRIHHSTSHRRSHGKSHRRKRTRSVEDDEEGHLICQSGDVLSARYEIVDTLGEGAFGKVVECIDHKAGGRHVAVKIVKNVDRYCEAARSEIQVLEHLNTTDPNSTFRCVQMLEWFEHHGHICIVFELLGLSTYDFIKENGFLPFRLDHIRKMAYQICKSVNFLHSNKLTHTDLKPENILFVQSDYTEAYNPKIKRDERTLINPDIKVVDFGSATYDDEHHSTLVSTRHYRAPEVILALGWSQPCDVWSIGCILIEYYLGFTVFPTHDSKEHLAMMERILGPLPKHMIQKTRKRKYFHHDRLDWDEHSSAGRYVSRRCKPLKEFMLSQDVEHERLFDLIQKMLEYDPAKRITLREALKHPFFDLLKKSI

CC(C)(C)C(=O)N1N=CC[C@H]1c1ccccc1 [GSK′963] gave a remaining activity at 10 µM (CLK1; [1]) of 107%, a remaining activity at 10 µM (CLK1; [2]) of 108% and a remaining activity at 10 µM (CLK1; [3]) of 106%. For the same molecule, the remaining activity at 10 µM (CDK7/cyclin H; [1]) was 96.7%, the remaining activity at 10 µM (CDK7/cyclin H; [2]) was 98.8% and the remaining activity at 10 µM (CDK7/cyclin H; [3]) was 94.6%. It also gave a remaining activity at 10 µM (BTK; [1]) of 95.6%, a remaining activity at 10 µM (BTK; [2]) of 95% and a remaining activity at 10 µM (BTK; [3]) of 96.1%. It also gave a remaining activity at 10 µM (MLK3/MAP3K11; [1]) of 95%, a remaining activity at 10 µM (MLK3/MAP3K11; [2]) of 96% and a remaining activity at 10 µM (MLK3/MAP3K11; [3]) of 94%. It also gave a remaining activity at 10 µM (PDK1/PDPK1; [1]) of 109%, a remaining activity at 10 µM (PDK1/PDPK1; [2]) of 108% and a remaining activity at 10 µM (PDK1/PDPK1; [3]) of 110%. It also gave a remaining activity at 10 µM (MELK; [1]) of 104%, a remaining activity at 10 µM (MELK; [2]) of 105% and a remaining activity at 10 µM (MELK; [3]) of 103%. It also gave a remaining activity at 10 µM (PIM3; [1]) of 116%, a remaining activity at 10 µM (PIM3; [2]) of 119% and a remaining activity at 10 µM (PIM3; [3]) of 113%. It also gave a remaining activity at 10 µM (CDK1/cyclin B; [1]) of 88.6%, a remaining activity at 10 µM (CDK1/cyclin B; [2]) of 84% and a remaining activity at 10 µM (CDK1/cyclin B; [3]) of 93.2%. It also gave a remaining activity at 10 µM (CK2a2; [1]) of 107%, a remaining activity at 10 µM (CK2a2; [2]) of 108% and a remaining activity at 10 µM (CK2a2; [3]) of 107%. For the same molecule, the remaining activity at 10 µM (PLK3; [1]) was 92.5%, the remaining activity at 10 µM (PLK3; [2]) was 95.5% and the remaining activity at 10 µM (PLK3; [3]) was 89.5%. For the same molecule, the remaining activity at 10 µM (MARK1; [1]) was 105%, the remaining activity at 10 µM (MARK1; [2]) was 105% and the remaining activity at 10 µM (MARK1; [3]) was 105%. It also gave a remaining activity at 10 µM (PLK2; [1]) of 110%, a remaining activity at 10 µM (PLK2; [2]) of 108% and a remaining activity at 10 µM (PLK2; [3]) of 111%. It also gave a remaining activity at 10 µM (AKT1; [1]) of 100%, a remaining activity at 10 µM (AKT1; [2]) of 102% and a remaining activity at 10 µM (AKT1; [3]) of 98.8%. The remaining activity at 10 µM (CDK1/cyclin A; [1]) was 105%, the remaining activity at 10 µM (CDK1/cyclin A; [2]) was 107% and the remaining activity at 10 µM (CDK1/cyclin A; [3]) was 102%. It also gave a remaining activity at 10 µM (ULK3; [1]) of 91.6%, a remaining activity at 10 µM (ULK3; [2]) of 92.2% and a remaining activity at 10 µM (ULK3; [3]) of 90.9%. For the same molecule, the remaining activity at 10 µM (TYK2; [1]) was 103%, the remaining activity at 10 µM (TYK2; [2]) was 104% and the remaining activity at 10 µM (TYK2; [3]) was 101%. The remaining activity at 10 µM (FGR; [1]) was 107%, the remaining activity at 10 µM (FGR; [2]) was 106% and the remaining activity at 10 µM (FGR; [3]) was 108%. It also gave a remaining activity at 10 µM (GRK5; [1]) of 99.4%, a remaining activity at 10 µM (GRK5; [2]) of 98.2% and a remaining activity at 10 µM (GRK5; [3]) of 101%.
